# Measurements reported in ChEMBL document CHEMBL1201862, “PubChem BioAssay data set” (2004).
#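 A five-concentration, 48-hour dose response in 96-well plates underlies each endpoint, interpolated linearly between surrounding concentrations. The concentration for 50% growth inhibition is given as GI50.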 Calls of active or inactive are those of the source. No stated cut-off is given here; in the data, active = GI50 up to about 1.1 µM and inactive = higher.
# Key:
# Test in all cases: inhibition of tumour cell growth, NCI panel, 48 h
# A549 = system: A549
# NCI-H460 = system: NCI-H460
# HCT-15 = system: HCT-15
# RXF 393 = system: RXF 393
# NCI/ADR-RES = system: NCI/ADR-RES
# UACC-257 = system: UACC-257
# Malme-3M = system: Malme-3M
# HCT-116 = system: HCT-116
# NCI-H522 = system: NCI-H522
# OVCAR-3 = system: OVCAR-3
# HOP-62 = system: HOP-62
# NCI-H226 = system: NCI-H226
# Hs-578T = system: Hs-578T
# A498 = system: A498
# CCRF-CEM = system: CCRF-CEM
# SR = system: SR
# COLO 205 = system: COLO 205
# NCI-H23 = system: NCI-H23
# OVCAR-4 = system: OVCAR-4
# K562 = system: K562
# SW-620 = system: SW-620
# SK-MEL-5 = system: SK-MEL-5
# MDA-MB-435 = system: MDA-MB-435
# RPMI-8226 = system: RPMI-8226
# HT-29 = system: HT-29
# UACC-62 = system: UACC-62
# IGROV-1 = system: IGROV-1
# M14 = system: M14
# SN12C = system: SN12C
# SNB-75 = system: SNB-75
# U-251 = system: U-251
# MOLT-4 = system: MOLT-4
# MDA-N = system: MDA-N
# KM12 = system: KM12
# SF-295 = system: SF-295
# PC-3 = system: PC-3
# HCC 2998 = system: HCC 2998
# TK-10 = system: TK-10
# MDA-MB-231 = system: MDA-MB-231
# CAKI-1 = system: CAKI-1
# SK-OV-3 = system: SK-OV-3
# SNB-19 = system: SNB-19
# UO-31 = system: UO-31
# SK-MEL-2 = system: SK-MEL-2
# SK-MEL-28 = system: SK-MEL-28
# DU-145 = system: DU-145
# T47D = system: T47D
# SF-268 = system: SF-268
# OVCAR-5 = system: OVCAR-5
# ACHN = system: ACHN
# BT-549 = system: BT-549
# MCF7 = system: MCF7
# 786-0 = system: 786-0
# EKVX = system: EKVX
# OVCAR-8 = system: OVCAR-8
# LOX IMVI = system: LOX IMVI
# SF-539 = system: SF-539
# HL-60 = system: HL-60
smiles,measurement,setting,value
CC(=O)Nc1ccccc1S(=O)(=O)c1c(-c2c(C)c(Cl)c(C)c(Cl)c2C)noc1C,GI50,A549,60.1 µM (inactive)
same,GI50,NCI-H460,26.5 µM (inactive)
same,GI50,HCT-15,> 100 µM
same,GI50,RXF 393,28.8 µM (inactive)
same,GI50,NCI/ADR-RES,41.2 µM (inactive)
same,GI50,UACC-257,60.7 µM (inactive)
same,GI50,Malme-3M,> 100 µM (inactive)
same,GI50,HCT-116,51.5 µM (inactive)
same,GI50,NCI-H522,49.5 µM (inactive)
same,GI50,OVCAR-3,57.8 µM (inactive)
same,GI50,HOP-62,19.7 µM (inactive)
same,GI50,NCI-H226,27 µM (inactive)
same,GI50,Hs-578T,28.6 µM (inactive)
same,GI50,A498,57 µM (inactive)
same,GI50,CCRF-CEM,27.8 µM (inactive)
same,GI50,SR,16.1 µM (inactive)
same,GI50,COLO 205,> 100 µM (inactive)
same,GI50,NCI-H23,67.6 µM (inactive)
same,GI50,OVCAR-4,14.7 µM (inactive)
same,GI50,K562,33.3 µM (inactive)
same,GI50,SW-620,> 100 µM (inactive)
same,GI50,SK-MEL-5,> 100 µM (inactive)
same,GI50,MDA-MB-435,> 100 µM (inactive)
same,GI50,RPMI-8226,29.2 µM (inactive)
same,GI50,HT-29,55.2 µM (inactive)
same,GI50,UACC-62,28.9 µM (inactive)
same,GI50,IGROV-1,56.6 µM (inactive)
same,GI50,M14,74.3 µM (inactive)
same,GI50,SN12C,30.3 µM (inactive)
same,GI50,SNB-75,12.4 µM (inactive)
same,GI50,U-251,31.6 µM (inactive)
same,GI50,MOLT-4,24.2 µM (inactive)
same,GI50,MDA-N,37.2 µM (inactive)
same,GI50,KM12,> 100 µM (inactive)
same,GI50,SF-295,32.8 µM (inactive)
same,GI50,PC-3,35.1 µM (inactive)
same,GI50,HCC 2998,90.4 µM (inactive)
same,GI50,TK-10,23.3 µM (inactive)
same,GI50,MDA-MB-231,23.7 µM (inactive)
same,GI50,CAKI-1,28.9 µM (inactive)
same,GI50,SK-OV-3,31.7 µM (inactive)
same,GI50,SNB-19,26 µM (inactive)
same,GI50,UO-31,> 100 µM (inactive)
same,GI50,SK-MEL-2,> 100 µM (inactive)
same,GI50,SK-MEL-28,> 100 µM (inactive)
same,GI50,DU-145,88.3 µM (inactive)
same,GI50,T47D,68.1 µM (inactive)
same,GI50,SF-268,75.2 µM (inactive)
same,GI50,OVCAR-5,> 100 µM (inactive)
same,GI50,ACHN,55.2 µM (inactive)
same,GI50,BT-549,33.9 µM (inactive)
same,GI50,MCF7,35.1 µM (inactive)
same,GI50,786-0,18.4 µM (inactive)
same,GI50,EKVX,48.9 µM (inactive)
same,GI50,OVCAR-8,37 µM (inactive)
COc1cc(CC(C)NC(C)=O)cc(OC)c1 (stereo not drawn),GI50,A549,> 100 µM (inactive)
same,GI50,NCI-H460,> 100 µM (inactive)
same,GI50,HCT-15,> 100 µM
same,GI50,RXF 393,> 100 µM (inactive)
same,GI50,NCI/ADR-RES,> 100 µM (inactive)
same,GI50,UACC-257,> 100 µM (inactive)
same,GI50,Malme-3M,> 100 µM (inactive)
same,GI50,HCT-116,> 100 µM (inactive)
same,GI50,NCI-H522,> 100 µM (inactive)
same,GI50,OVCAR-3,> 100 µM (inactive)
same,GI50,HOP-62,> 100 µM (inactive)
same,GI50,LOX IMVI,> 100 µM (inactive)
same,GI50,NCI-H226,> 100 µM (inactive)
same,GI50,Hs-578T,> 100 µM (inactive)
same,GI50,A498,> 100 µM (inactive)
same,GI50,CCRF-CEM,> 100 µM (inactive)
same,GI50,SR,3.04 µM (inactive)
same,GI50,COLO 205,> 100 µM (inactive)
same,GI50,NCI-H23,> 100 µM (inactive)
same,GI50,SF-539,> 100 µM (inactive)
same,GI50,K562,> 100 µM (inactive)
same,GI50,SW-620,> 100 µM (inactive)
same,GI50,SK-MEL-5,> 100 µM (inactive)
same,GI50,MDA-MB-435,> 100 µM (inactive)
same,GI50,RPMI-8226,> 100 µM (inactive)
same,GI50,HT-29,> 100 µM (inactive)
same,GI50,UACC-62,> 100 µM (inactive)
same,GI50,IGROV-1,> 100 µM (inactive)
same,GI50,M14,> 100 µM (inactive)
same,GI50,SN12C,> 100 µM (inactive)
same,GI50,SNB-75,34.4 µM (inactive)
same,GI50,U-251,> 100 µM (inactive)
same,GI50,MOLT-4,> 100 µM (inactive)
same,GI50,MDA-N,> 100 µM (inactive)
same,GI50,KM12,> 100 µM (inactive)
same,GI50,SF-295,> 100 µM (inactive)
same,GI50,HL-60,> 100 µM (inactive)
same,GI50,PC-3,> 100 µM (inactive)
same,GI50,HCC 2998,> 100 µM (inactive)
same,GI50,TK-10,> 100 µM (inactive)
same,GI50,MDA-MB-231,> 100 µM (inactive)
same,GI50,CAKI-1,> 100 µM (inactive)
same,GI50,SK-OV-3,> 100 µM (inactive)
same,GI50,SNB-19,> 100 µM (inactive)
same,GI50,UO-31,> 100 µM (inactive)
same,GI50,SK-MEL-2,> 100 µM (inactive)
same,GI50,SK-MEL-28,> 100 µM (inactive)
same,GI50,DU-145,> 100 µM (inactive)
same,GI50,T47D,> 100 µM (inactive)
same,GI50,SF-268,> 100 µM (inactive)
same,GI50,OVCAR-5,> 100 µM (inactive)
same,GI50,ACHN,> 100 µM (inactive)
same,GI50,BT-549,> 100 µM (inactive)
same,GI50,MCF7,> 100 µM (inactive)
same,GI50,786-0,> 100 µM (inactive)
same,GI50,OVCAR-8,> 100 µM (inactive)
Nc1nc(=O)c(/N=N/c2ccc([As](=O)(O)O)cc2)c(N)[nH]1,GI50,A549,> 100 µM (inactive)
same,GI50,NCI-H460,> 100 µM (inactive)
same,GI50,HCT-15,> 100 µM
same,GI50,RXF 393,> 100 µM (inactive)
same,GI50,NCI/ADR-RES,> 100 µM (inactive)
same,GI50,UACC-257,> 100 µM (inactive)
same,GI50,Malme-3M,> 100 µM (inactive)
same,GI50,HCT-116,> 100 µM (inactive)
same,GI50,NCI-H522,> 100 µM (inactive)
same,GI50,OVCAR-3,> 100 µM (inactive)
same,GI50,HOP-62,> 100 µM (inactive)
same,GI50,LOX IMVI,> 100 µM (inactive)
same,GI50,NCI-H226,> 100 µM (inactive)
same,GI50,Hs-578T,> 100 µM (inactive)
same,GI50,A498,> 100 µM (inactive)
same,GI50,CCRF-CEM,> 100 µM (inactive)
same,GI50,SR,> 100 µM (inactive)
same,GI50,COLO 205,> 100 µM (inactive)
same,GI50,NCI-H23,> 100 µM (inactive)
same,GI50,OVCAR-4,> 100 µM (inactive)
same,GI50,K562,> 100 µM (inactive)
same,GI50,SW-620,> 100 µM (inactive)
same,GI50,SK-MEL-5,> 100 µM (inactive)
same,GI50,MDA-MB-435,> 100 µM (inactive)
same,GI50,RPMI-8226,> 100 µM (inactive)
same,GI50,HT-29,> 100 µM (inactive)
same,GI50,UACC-62,> 100 µM (inactive)
same,GI50,IGROV-1,> 100 µM (inactive)
same,GI50,M14,> 100 µM (inactive)
same,GI50,SN12C,> 100 µM (inactive)
same,GI50,SNB-75,> 100 µM (inactive)
same,GI50,U-251,> 100 µM (inactive)
same,GI50,MOLT-4,> 100 µM (inactive)
same,GI50,MDA-N,> 100 µM (inactive)
same,GI50,KM12,> 100 µM (inactive)
same,GI50,SF-295,> 100 µM (inactive)
same,GI50,HL-60,> 100 µM (inactive)
same,GI50,PC-3,> 100 µM (inactive)
same,GI50,HCC 2998,> 100 µM (inactive)
same,GI50,TK-10,> 100 µM (inactive)
same,GI50,MDA-MB-231,> 100 µM (inactive)
same,GI50,CAKI-1,> 100 µM (inactive)
same,GI50,SK-OV-3,> 100 µM (inactive)
same,GI50,SNB-19,> 100 µM (inactive)
same,GI50,UO-31,> 100 µM (inactive)
same,GI50,SK-MEL-2,> 100 µM (inactive)
same,GI50,SK-MEL-28,> 100 µM (inactive)
same,GI50,DU-145,> 100 µM (inactive)
same,GI50,T47D,> 100 µM (inactive)
same,GI50,SF-268,> 100 µM (inactive)
same,GI50,OVCAR-5,> 100 µM (inactive)
same,GI50,ACHN,> 100 µM (inactive)
same,GI50,BT-549,> 100 µM (inactive)
same,GI50,MCF7,> 100 µM (inactive)
same,GI50,786-0,> 100 µM (inactive)
same,GI50,EKVX,> 100 µM (inactive)
same,GI50,OVCAR-8,> 100 µM (inactive)
